Residues, ends and D or L forms follow the SMILES beside them.
What was measured:
[1] = test system: white unbred male mice; experiment: Acute toxicity according to Kerber, single intramuscular administration; format: in vivo
Text: Possible toxic effects of L-Ala-L-Glu-L-Asp-L-Pro (SEQ ID NO:1) tetrapeptide on the organism were studied in compliance with “The rules of preclinical estimation of safety of pharacological agents” (GLP) approved by the Department of State Control on Medicinal Agents and Medical Equipment of the Russian Federation of Dec. 29, 1997.
Objective of the study consisted in defining the tolerable toxic drug doses of the agent, estimating the stage and character of pathologic alterations in various organs and systems and in exploring the correlation between the toxic effects and the dose and duration of the drug application.
Acute toxicity of L-Ala-L-Glu-L-Asp-L-Pro (SEQ ID NO:1) tetrapeptide was determined according to Kerber. The study was performed on 66 white unbred male mice weighing 20 to 23 g kept in vivarium under standard regimen and fed upon standard rations. The animals were randomly divided into 6 equal groups by 11 mice in each. The animals were subject to a single intramuscular administration of 0.25 ml of the preparation in doses 1 mg/kg, 2 mg/kg, 3 mg/kg, 4 mg/kg, 5 mg/kg (several thousand times exceeding the therapeutic dose recommended for clinical trials). The control animals were administered the similar amount of saline.

[2] = test system: rats; experiment: Toxic effects of neurotropic agents (apomorphine, haloperidol, nicotine, caffeine), spontaneous motional activity; format: in vivo
Experimental: Investigated was the action of L-Ala-L-Glu-L-Asp-L-Pro tetrapeptide on the toxic effects of neurotropic agents of various pharmacological groups.
In an hour after an intramuscular injection of saline (control) or L-Ala-L-Glu-L-Asp-L-Pro tetrapeptide (5 μg/kg) the rats were intraperitoneally administered toxic doses of different neuropharmacological agents (apomorphine, haloperidol, nicotine and caffeine). Thereby, the parameters of vertical (anxiety) and horizontal (locomotor activity) spontaneous motional activity were registered.

[3] = test system: patients with vascular dementia; experiment: Preliminary clinical trial in patients with vascular dementia; format: in vivo, human; conditions: 3 μg intramuscularly once daily for 30 days
Experimental: Twelve patients aged 69 to 76 years (7 males and 5 females) suffering from hypertensive disease and atherosclerosis of cerebral vessels for a long time were enrolled in the study. Three of them had apoplexy in their medical histories. Initial data obtained in the similar patients before the treatment was used as control. L-Ala-L-Glu-L-Asp-L-Pro tetrapeptide was intramuscularly injected in a single dose of 3 μg once daily for 30 days.
Results were assessed after the treatment in comparison with the data obtained before the treatment. Basing on the examination results, changes in the patients' state were defined according to the following gradation: improvement (substantial, average or minor), deterioration, no changes.
At the pretreatment examination signs of intellectual-mnemic defect were found in all the patients: memory impairment, intellectual deterioration, aphasia, apraxia and agraphia disorders. In 9 patients signs of disorientation in time and place were found. The patients' emotional state was labile, manifested with periodical alternation of apathy and euphoria, complacency and anger aptness.

[4] = test system: cerebral cortex of rats; experiment: Intensity of lipid peroxide oxidation reactions and protein peroxidation in the cerebral cortex; format: in vivo; conditions: 1 μg intraperitoneally daily for 5 days
Experimental: The intensity of lipid peroxide oxidation (LPO) was assessed by the content of initial LPO products—diene conjugates and end products—Schiff bases. The degree of protein peroxidation was estimated by the content of carbonyl-derived amino acids in proteins after their interaction with 2,4-dinitrophenylhydrazine.
The study was conducted on 20 white unbred rats. 1 μg of the tetrapeptide was administered to the animals intraperitoneally daily for 5 days.
Moreover, the tetrapeptide application inhibited protein peroxidation as well as LPO (Table 1).

[5] = test system: rats; experiment: Chronic toxicity, 6 months intramuscular; format: in vivo
Experimental: Chronic toxicity of L-Ala-L-Glu-L-Asp-L-Pro (SEQ ID NO:1) tetrapeptide obtained by the claimed method was investigated by means of a long-term administration thereof to rats weighing 150–250 g. The animals were subject to daily intramuscular administration of the drug in doses 1 μg/kg, 0.1 mg/kg, 1 mg/kg in 0.5 ml of saline for 6 months. Animals' behaviour, food and water consumption, the state of hair integument and mucous membranes were registered. The animals were weighed daily for the first 3 months of the experiment and then—once a month. Haematological and biochemical investigations were conducted in 3 months after the onset of the drug administration and on the experiment completion. Functions of the cardiovascular system, liver, pancreas, kidneys and adrenal glands were assessed. After the treatment completion some animals were subject to pathomorphologic examination with the purpose to estimate the state of different sections of the brain and bone marrow, heart, aorta, lungs, liver, kidneys, endocrine and immune organs.

[6] = test system: intact white mice; experiment: Conditioned reflex of passive avoidance (CRPA) in intact mice; format: in vivo; conditions: for Trained animals (%): i.p. 60 min. before the training
Experimental: (§1) Nootropic activity of L-Ala-L-Glu-L-Asp-L-Pro tetrapeptide was studied with the application of the conditioned reflex of passive avoidance (CRPA) in the intact animals and under the conditions of amnestic impacts (electroconvulsive treatment and ethanol intoxication).
(§2) The experiments were carried out on male mice weighing 20 to 24 g. For each animal the period of stay in dark and lighted chamber departments was registered during 2 min. before the training. […] The animals were trained by means of applying an electric pain stimulus in the preferred dark department, which lasted until the animal left this department. L-Ala-L-Glu-L-Asp-L-Pro tetrapeptide was introduced intraperitoneally 60 min. before the training. Testing was performed in 2 and 24 hours after the training. The period the animal stayed in the dark and lighted chamber departments and the number of animals not entering the dark department (“educated” animals) were recorded.

[7] = test system: mice subject to ethanol-induced amnestic impact; experiment: CRPA in mice subject to ethanol-induced amnestic impact; format: in vivo
Experimental: as §1, §2
Ethanol was administered to the mice orally for 13 days in the form of a 10% solution. Training was held twice: on the 14th day of ethanol administration and in 24 hours after the first training. L-Ala-L-Glu-L-Asp-L-Pro tetrapeptide was administered intraperitoneally 30 min. before the training. Testing was performed in 2 and 24 hours after the first and second training sessions.

[8] = 5 μg/kg intramuscular 1 hour before toxic dose of caffeine i.p.
[9] = 1: in 2 hours after the training
[10] = 2: in 24 hours after the training
[11] = 3: in 2 hours after the repeated training
[12] = 4: in 24 hours after the repeated training

Compound: C[C@H](N)C(=O)N[C@@H](CCC(=O)O)C(=O)N[C@@H](CC(=O)O)C(=O)N1CCC[C@H]1C(=O)O [L-Ala-L-Glu-L-Asp-L-Pro tetrapeptide, L-Alanyl-L-Glutamyl-L-Aspartyl-L-Proline] (H-AEDP-OH)
- acute toxic reactions ([1]; doses several thousand times exceeding the therapeutic one): did not induce any acute toxic reactions
- alterations in the general state, behaviour, motional activity, hair and skin integument, physiologic discharges ([1]; single intramuscular 1-5 mg/kg): No alterations
- death of mice ([1]; single intramuscular 1-5 mg/kg, within 72 hours and in 14 days): none of the mice in either of the groups died
- effect on apomorphine toxic effects (anxiety, locomotor activity) ([2]; 5 μg/kg intramuscular 1 hour before toxic dose of apomorphine i.p.): diminished anxiety and locomotor activity
- effect on caffeine-induced anxiety [2, 8]: lowered caffeine-induced anxiety
- effect on locomotor activity after caffeine [2, 8]: did not affect locomotor activity
- effect on haloperidol toxic effects (anxiety, locomotor activity) ([2]; 5 μg/kg intramuscular 1 hour before toxic dose of haloperidol i.p.): increased anxiety and locomotor activity
- effect on nicotine toxic effects (anxiety) ([2]; 5 μg/kg intramuscular 1 hour before toxic dose of nicotine i.p.): decreased the influence of nicotine on the animals' anxiety
- patients showing reverse development of the pathologic symptoms [3]: 74.8%
- Degree of protein peroxidation [4]: 4.81 ± 0.09 μmole/mg of protein
- Diene conjugates [4]: 29.67 ± 1.93 nmole/g of the tissue
- Schiff bases [4]: 245.2 ± 23.9 IU/g of the tissue
- side effects, chronic toxicity ([5]; intramuscular daily for 6 months, 1 μg/kg, 0.1 mg/kg, 1 mg/kg): absence of any side effects
- pathologic alterations (general state, peripheral blood indices, intrinsic organs, cardiovascular and respiratory systems, liver and kidney functions) ([5]; prolonged intramuscular administration to rats): no pathologic alterations
- Total period of stay in the dark chamber during 2 min. ([6]; 2 hours after training): 11.4 ± 5.2 s
- Trained animals (%) ([6]; 2 hours after training): 86%
- Total period of stay in the dark chamber during 2 min. ([6]; 24 hours after training): 26.6 ± 5.9 s
- Trained animals (%) ([6]; 24 hours after training): 68%
- Total period of stay in the dark chamber [7, 9]: 47.8 ± 5.7 s
- Trained animals (%) [7, 9]: 13%
- Total period of stay in the dark chamber [7, 10]: 41.6 ± 5.8 s
- Trained animals (%) [7, 10]: 31%
- Total period of stay in the dark chamber [7, 11]: 13.7 ± 5.7 s
- Trained animals (%) [7, 11]: 77%
- Total period of stay in the dark chamber [7, 12]: 7.6 ± 5.7 s
- Trained animals (%) [7, 12]: 86%

From US7189701B1, “Tetrapeptide stimulating functional activity of neurons pharmacological agent based thereon and method of use thereof” (Sankt-Petersburgskaya Obschestvennaya Organizatsiya …, priority 1999, dated 2007)
